Experimental data taken from patent US20140341922A1, “Method for Overcoming Tolerance to Targeted Anti-Cancer Agent” (SUN R&DB Foundation, priority 2011, published 2014).

What was measured:
[1] = system: IGF-1R, EGFR, Src, Akt, mTOR phosphorylation; assay: Western blot of IGF-1R, EGFR, Src, Akt signaling after cixutumumab; type: cell-based, human
Experimental: Preparation of total cell lysates, Western blot analysis, and immunoprecipitation were performed according to methods described in our previous report (Morgillo et al., 2006).
Total cell lysates were immunoprecipitated with antibodies against integrin β3, integrin β1, or IgG. The precipitates with protein A agarose were resolved by sodium dodecyl sulfate-polyacrylamide gel electrophoresis (SDS-PAGE) and transferred to a polyvinylidene difluoride (PVDF) membrane. Western blot analysis was performed using specific Abs described as follows, and antigen-antibody complexes were visualized using enhanced chemiluminescence plus kits (Amersham Biosciences, Piscataway, N.J.).
The present inventors investigated the mechanisms involved in the resistance to cixutumumab treatment in HNSCC and NSCLC cells. cixutumumab resistant (LN686, FADU, 226B, 226Br, H596, and H460) or -sensitivity (UMSCC38, OSC19, H1299, and A549m) lines grown in TCP, PCP, UAP, or soft agar were untreated or treated with 25 μg/ml of cixutumumab for 6 h, and then were stimulated with IGF-1 for 30 min. Expression of several proteins were analyzed by Western blot analysis.
Cixutumumab-resistant (LN686, FADU, 226B, 226Br, H596, and H460) or -sensitive (UMSCC38, OSC19, H1299, and A549m) cell lines grown in PCP were untreated or treated with 25 μg/ml of cixutumumab for 7 days, and then were stimulated with 10% FBS for 30 min. Expression of several proteins were analyzed by western blot analysis.
Because cross-talk between EGFR and IGF-1R signalings have been proposed as a major mechanism of a resistance to TKIs of IGF-1R and EGFR (Buck et al., 2008; Morgillo et al., 2006), the present inventors next examined whether cixutumumab treatment induces activation of EGFR and Akt phosphorylation. After cixutumumab-resistant (LN686, FADU, 226B, 226Br, H596, and H460) or -sensitive (UMSCC38, OSC19, H1299, and A549m) cell lines grown in PCPs were treated with cixutumumab, 10% FBS was treated for 30 min. Several phosphorylated proteins and actin were analyzed by western blot analysis. In addition, densitometric analysis was performed to quantify the expression of the proteins for comparisons between cixutumumab-treated and control cells treated with vehicle.
The LN686 cells grown in PCP were treated with cixutumumab (25 μg/ml) for indicated times prior to stimulation with 10% FBS (FIGS. 14 and 15) or IGF-1 (100 ng/ml) (FIGS. 16 and 17) in the presence or absence of anti-human IGF-1 neutralizing monoclonal antibody (αIGF-1) (FIGS. 15 and 16) for indicated times (FIG. 16) or for 30 min (FIGS. 14, 15, and 17). Immunoprecipitation with whole proteins or integrin β3 antibodies was performed on the presented proteins, and expression of the proteins was analyzed by western blot analysis.
In addition, LN686 cells grown in PCP were treated with cixutumumab (25 μg/ml) for 7 days in the absence of FBS. The results obtained by analyzing p-IGF-1R (Y1131), IGF-1R, p-Src (Y416), Src, p-EGFR (Y845), p-EGFR (Y1068), EGFR, p-Akt (S473), and Akt using western blot analysis. LN686 cells stimulated with 10% serum for 30 min were included as a control.

[2] = system: 13 HNSCC and 6 NSCLC cells; assay: MTT cell viability in conventional 2D culture (TCPs); type: cell-based, human; details: 25 μg/ml, up to 7 days, MTT assay
Experimental: A panel of 13 HNSCC and 6 NSCLC cells grown in 2D culture conditions using TCPs were treated with 25 μg/ml cixutumumab, and the effect of cixutumumab on growth of cancer cells tested was analyzed by the MTT assay.
The effect of cixutumumab on growth of 13 HNSCC and 6 NSCLC cells was evaluated by the MTT assay, and the results are shown in FIG. 2.
LN686, UMSCC38, and A549m cells were treated with cixutumumab diluted in 1% FBS-containing medium for 3 and 5 days. Cell viability was evaluated by the MTT assay.

[3] = system: recombinant soluble integrin β3 (rβ3) binding to IGF-1; assay: ELISA-type integrin binding assay on IGF-1-coated plates; details: 2 h
Experimental: IGF-1 (1 or 2 μg) was coated onto wells in 96-well microtiter plates and incubated with recombinant integrin β3 (0.5 μg/ml) and/or IGF-1R (0.1 or 0.5 μg/ml) protein diluted in 1 mM MnCl2-added HEPES-Tyrode buffer at room temperature for 2 h in the presence or absence of cixutumumab (10 μg/ml). Binding of integrin β3 and/or IGF-1R was detected by enzyme immunoassay using anti-His or anti-IGF-1R mAbs and avidin-labeled alkaline phosphatase-conjugated anti-mouse or anti-rabbit IgGs.
Secondly, the present inventors performed Enzyme-Linked ImmunoSorbent Assay-type integrin binding assay. Specifically, 96-well microtiter plates coated with IGF-1 were recombinant soluble IGF-1R (rIGF-1R; 5 μg/ml) or recombinant soluble integrin β3 (rβ3; 5 μg/ml), alone or in combination, in the presence or absence of cixutumumab (25 μg/ml) for 2 h. Bound IGF-1R (left) and integrin β3 (middle, right) were identified using anti-IGF1R and anti-His mAbs, respectively. The data are shown as the mean±SD of triplicate experiments (*P<0.05; **P=0.01; ***P<0.001).

Substance: cixutumumab: humanized mAb targeting IGF-1R, provided by ImClone Systems
- IGF-1-induced IGF-1R and Akt phosphorylation, and total IGF-1R expression ([1]; 25 μg/mL for 6 h, LN686 and OSC19 cells in TCPs, PCPs, UAPs, soft agar): effectively suppressed
- phosphorylation of Akt and downstream effectors mTOR, p70S6K, S6 ([1]; LN686 (cixutumumab-resistant)): not to inhibit or to even increase
- time IGF-1R remained dephosphorylated ([1]; LN686 in PCP, 25 μg/ml, no change in IGF-1R level): 3 h
- levels of p-IGF-1R, p-EGFR (Y845), p-Src (Y416), and p-Akt (S473) ([1]; LN686 in PCP, 30 min pretreatment, 10% FBS stimulation): decreased
- phosphorylation of Src, FAK, EGFR (Y845), Akt, mTOR ([1]; LN686 in PCP, one hour treatment, 10% FBS stimulation): rapidly rephosphorylated
- phosphorylation of Akt and downstream effectors mTOR, p70S6K, S6 ([1]; OSC19 (cixutumumab-sensitive)): inhibited
- EGFR, Src, or Akt phosphorylation ([1]; cixutumumab alone, absence of IGF-1 stimulation, LN686): failed to induce
- phosphorylation of EGFR at Src-specific site (Y845) and of Src (Y416) ([1]; cixutumumab-resistant lines in PCPs, 7 days, 10% FBS 30 min): increased
- phosphorylation of EGFR at Tyr1068 ([1]; drug-resistant lines in PCPs, 7 days, 10% FBS 30 min): increased
- viability of cells grown in 2D culture conditions [2]: did not inhibit
- ablation of IGF-1-rβ3 interaction by rIGF-1R [3]: markedly blocked
